Columns and labels:
[1] = parameters: method as in PMID 29568426; conditions: surface tension; 19 : 1 H2O : EtOH solution at 298 K; unit printed only in Figs S37-S40; cited from earlier work
[2] = Mouse i.v. blood pharmacokinetic study; assay type: in vivo, female CD-1 mice; conditions: for enterohepatic recirculation: blood concentration-time profile, in words; for clearance: female, CD-1, mouse, 1 mg/kg, read-out: Cl blood; for clearance / Vd: SSA 3 derived based on AUC0–7h; for Cmax: 2% DMSO/98% H2O
Procedure: Within these studies SSAs 3 and 5 were dosed at 1 mg kg^−1, to female CD-1 mice (n = 9 per SSA) via an intravenous tail vein bolus dose formulation as solutions in 2% DMSO/98% water. Blood taken from the mouse tail vein was extracted by protein precipitation and SSA concentration calculated. The results of these studies are shown in Fig. 12 and Table 4. page 8: For the purpose of fu and SSA-3 PK determination, samples were analysed using a Waters I-Class ultra-high-performance liquid chromatography (UHPLC) system coupled to a Waters Xevo TQ-XS mass spectrometer. Separation of analytes was achieved using an Accucore Vanquish C18+ column (1.5 µm, 50 x 2.1 mm) at a temperature of 40°C and a binary mobile phase gradient at a flow rate of 0.4 mL/min. Initial LC conditions comprised 66% solvent A (0.1% formic acid + 5 mM ammonium acetate in water), 33% solvent B (0.1% formic acid + 5 mM ammonium acetate in methanol); this was ramped to 63% B at 1.8 min and 95% B at 1.9 min, held for 0.5 min and then immediately returned to initial conditions and held for the remaining 0.5 min of the method. Sample analysis was by electrospray ionisation combined with multiple reaction monitoring in negative ion mode. The capillary voltage was 0.8 kV, desolvation gas was 600°C. For the purpose of apparent permeability determination, samples were analysed using a Waters I- Class ultra-high-performance liquid chromatography (UHPLC) system coupled to a Waters Vion mass spectrometer (Waters, Elstree, UK). Separation of analytes was achieved used an Accucore Vanquish C18+ column (1.5 µm, 50 x 2.1 mm) at a temperature of 40°C and a binary mobile phase gradient at a flow rate of 0.4 mL/min. Initial LC conditions for SSA 1-4 comprised 66% solvent A (0.1% formic acid + 5 mM ammonium acetate in water), 33% solvent B (0.1% formic acid + 5 mM ammonium acetate in methanol); this was ramped to 63% B at 1.8 min and 95% B at 1.9 min, held for 0.5 min and then immediately returned to initial conditions and held for the remaining 0.5 min of the method. Initial LC conditions for SSA 5-10 comprised 54% solvent A (0.1% formic acid + 5 mM ammonium acetate in water), 46% solvent B (0.1% formic acid + 5 mM ammonium acetate in methanol); this was ramped to 67% B at 1.8 min and 95% B at 1.9 min, held for 0.5 min and then immediately returned to initial conditions and held for the remaining 0.5 min of the method. Sample analysis was by electrospray ionisation in negative ion mode. The capillary voltage was 2.5 kV, desolvation gas was 600°C. For the purpose of PK determination of SSA 5, samples were analysed using a Waters I-Class ultra- high-performance liquid chromatography (UHPLC) system coupled to a Waters Xevo TQ-XS mass spectrometer. Separation of analytes was achieved using an Accucore Vanquish C18+ column (1.5 µm, 50 x 2.1 mm) at a temperature of 40°C and a binary mobile phase gradient at a flow rate of 0.4 mL/min. Initial LC conditions comprised 54% solvent A (0.1% formic acid + 5 mM ammonium acetate in water), 46% solvent B (0.1% formic acid + 5 mM ammonium acetate in methanol); this was ramped to 67% B at 1.8 min and 95% B at 1.9 min, held for 0.5 min and then immediately returned to initial conditions and held for the remaining 0.5 min of the method. Sample analysis was by electrospray ionisation combined with multiple reaction monitoring in negative ion mode. The capillary voltage was 0.8 kV, desolvation gas was 600°C. Mean blood concentration-time profile: Within these studies SSAs 3 and 5 were dosed at 1 mg/kg, to female CD-1 mice (n=9 per SSA) via an intravenous tail vein bolus dose formulation as solutions in 2 % DMSO/98 % water. Blood taken from the mouse tail vein was extracted by protein precipitation. SSA concentrations were calculated through UPLC-MS/MS techniques, with tolbutamide as the internal standard. The assay met the acceptance criteria with >7 calibration standards within ± 20% of nominal concentration. The lower limit of quantitation was 2 ng/mL for both compounds. […]

[3] = blood, iv, i.v. 1 mg kg^−1, female CD-1 mice
[4] = i.v. 1 mg kg^−1, female CD-1 mice
[5] = mouse, blood, iv, i.v. 1 mg kg^−1, female CD-1 mice
[6] = mouse, iv, blood, i.v. 1 mg kg^−1, female CD-1 mice

| Blood concentration of SSA ([2]; 0.5 h post i.v. dosing) [nM] | Blood concentration of SSA ([2]; 4.0 h post i.v. dosing) [nM] | clearance [2, 3] [mL/min/kg] | Cl blood as % liver blood flow (LBF) [2, 4] [% LBF] | half-life ([2]; mouse, blood, iv, elimination half-life, i.v. 1 mg kg^−1, female CD-1 mice) [min] | Vd [2, 5] [L/kg] | Cmax [2, 6] [nM] | AUC(0-inf) [2, 6] [µM·h] | AUC(0-t) [2, 6] [µM·h] | Tmax [2, 6] [min] | SMILES | CMC [1] | enterohepatic recirculation ([2]; i.v. 1 mg kg^−1) |
| --- | --- | --- | --- | --- | --- | --- | --- | --- | --- | --- | --- | --- |
| – | – | – | – | – | – | – | – | – | – | Cc1ccc2nc(-c3ccc(NC(=O)NCS(=O)(=O)O)cc3)sc2c1 [SSA 6] | 0.5 (ref. [38]) mM | – |
| 643 | 11 | ~31 | 34 | 42 | 0.9 | 4050 | 1.46 | 1.45 | 4.98 | O=C(NCS(=O)(=O)O)Nc1ccccc1-c1nc2ccccc2s1 [SSA 5] | 9.5 (ref. [38]) mM | did not show any evidence of enterohepatic recirculation |
| 344 | 99 | 25 | 28 | – | 0.8 | 8090 | – | 2.28 | 4.98 | O=C(NCS(=O)(=O)O)Nc1ccc(C(F)(F)F)cc1 [SSA 3] | – | undergoing enterohepatic recirculation |
